Measurements published in patent US8071581B2, “Triazolopyridazine protein kinase modulators” (SGX Pharmaceuticals, Inc., priority 2006, dated 2011).

Assays:
[1] = molecular target: MET kinase (c-MET), kinase domain of human Met (Homo sapiens, UniProt P08581); assay: MET luminescence-based enzyme assay (Kinase-Glo)
[2] = system: GTL16; assay: GTL16 cell assay (EC50); type: cell-based; conditions: Homo sapiens, GTL 16
Experimental: Compounds were tested in the following assays in duplicate. 96-well XTT assay: Cells were grown in growth media containing various concentrations of compounds (duplicates) on a 96-well flat bottom plate for 72 hours at 37° C. in 5% CO2. The starting cell number was 5000 cells per well and volume was 120 μl. At the end of the 72-hour incubation, 40 μl of XTT labeling mixture (50:1 solution of sodium 3′-[1-(phenylaminocarbonyl)-3,4-tetrazolium]-bis(4-methoxy-6-nitro) benzene sulfonic acid hydrate and Electron-coupling reagent: PMS (N-methyl dibenzopyrazine methyl sulfate) were added to each well of the plate. After an additional 2-6 hours […] with a spectrophotometer.

MET kinase (c-MET), kinase domain of human Met, sequence (P08581 1078-1345 limits assumed): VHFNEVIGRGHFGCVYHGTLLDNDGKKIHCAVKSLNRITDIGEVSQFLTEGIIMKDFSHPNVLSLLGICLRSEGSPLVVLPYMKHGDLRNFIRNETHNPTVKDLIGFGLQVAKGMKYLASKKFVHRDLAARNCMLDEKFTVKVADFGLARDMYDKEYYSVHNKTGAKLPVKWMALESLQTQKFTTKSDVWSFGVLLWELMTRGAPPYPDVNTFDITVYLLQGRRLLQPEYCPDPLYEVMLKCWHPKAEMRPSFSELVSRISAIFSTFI

IC50 [1] [nM] | EC50 ([2]; Table 2) [nM] | EC50 ([2]; Table 1) [nM] | SMILES
< 100 | < 100 |  | Cn1cc(-c2cnc3ccc(Cc4nnc5ccc(N)nn45)cc3c2)cn1 [compound 161]
< 100 | < 100 |  | CN(C)c1ccc2nnc(Cc3ccc4ncc(-c5cnn(C)c5)cc4c3)n2n1 [compound 159, Dimethyl-{3-[3-(1-methyl-1H-pyrazol-4-yl)-quinolin-6-ylmethyl]-[1,2,4]triazolo[4,3-b]pyridazin-6-yl}-amine]
< 100 |  | < 100 | Cn1cc(-c2ccc3nnc(Cc4cc5cccnc5cc4F)n3n2)cn1 [compound 90]
< 100 | 100 to 1000 |  | Cc1ccc2nnc(Cc3ccc4ncc(-c5cnn(C6CNC6)c5)cc4c3)n2n1 [compound 153]
< 100 | < 100 |  | Cc1ccc2nnc(Cc3ccc4ncc(-c5cnn(CCN6CCOCC6)c5)cc4c3)n2n1 [compound 133]
100 to 1000 |  | 100 to 1000 | CN1CCN(c2ccc3nnc(Cc4ccc5ncccc5c4)n3n2)CC1 [compound 113]
< 100 | < 100 |  | Cc1ccc2nnc(Cc3ccc4ncc(-c5cnn(CCN6CCCC6)c5)cc4c3)n2n1 [compound 170]
< 100 |  | < 100 | CC(c1ccc2ncsc2c1)c1nnc2ccc(-c3cnn(C)c3)nn12 (stereo not shown) [compound 79]
< 100 |  | < 100 | Cc1cc(F)cc(-c2ccc3nnc(Cc4ccc5ncccc5c4)n3n2)c1 [compound 76]
100 to 1000 | 100 to 1000 |  | Cc1ccc2nnc(Cc3ccc4ncc(-c5cnc[nH]5)cc4c3)n2n1 [compound 142, 3-(1H-Imidazol-4-yl)-6-(6-methyl-[1,2,4]triazolo[4,3-b]pyridazin-3-ylmethyl)-quinoline]
< 100 |  | < 100 | Cn1cc(-c2ccc3nnc(Cc4ccc5ncsc5c4)n3n2)cn1 [compound 96]
< 100 | < 100 |  | COc1ccc2nnc(Cc3ccc4ncc(-c5cnn(C)c5)cc4c3)n2n1 [compound 140, 6-(6-Methoxy-[1,2,4]triazolo[4,3-b]pyridazin-3-ylmethyl)-3-(1-methyl-1H-pyrazol-4-yl)-quinoline]
< 100 | 100 to 1000 |  | CC(=O)N1CC(n2cc(-c3cnc4ccc(Cc5nnc6ccc(C)nn56)cc4c3)cn2)C1 [compound 175, 1-(3-{4-[6-(6-Methyl-[1,2,4]triazolo[4,3-b]pyridazin-3-ylmethyl)-quinolin-3-yl]-pyrazol-1-yl}-azetidin-1-yl)-ethanone]
< 100 |  | 100 to 1000 | NCc1cccc(-c2ccc3nnc(Cc4ccc5ncccc5c4)n3n2)c1 [compound 55]
< 100 | 100 to 1000 |  | CC(=O)N1CC(Cn2cc(-c3cnc4ccc(Cc5nnc6ccc(C)nn56)cc4c3)cn2)C1 [compound 181]
< 100 | 100 to 1000 |  | Cc1ccc2nnc(Cc3c[nH]c4ncc(-c5cnn(C)c5)cc34)n2n1 [compound 177, 6-Methyl-3-[5-(1-methyl-1H-pyrazol-4-yl)-1H-pyrrolo[2,3-b]pyridine-3-ylmethyl]-[1,2,4]triazolo[4,3-b]pyridazine]
100 to 1000 |  | 100 to 1000 | Fc1ccc(-c2ccc3nnc(Cc4ccc5ncccc5c4)n3n2)cc1 [compound 63]
< 100 | 100 to 1000 |  | Cn1cc(-c2cnc3ccc(Cc4nnc5ccc(C(F)(F)F)nn45)cc3c2)cn1 [compound 123, 3-(1-Methyl-1H-pyrazol-4-yl)-6-(6-trifluoromethyl-[1,2,4]triazolo[4,3-b]pyridazin-3-ylmethyl)-quinoline]
< 100 | < 100 |  | CCN1CC(n2cc(-c3cnc4ccc(Cc5nnc6ccc(C)nn56)cc4c3)cn2)C1 [compound 171, 3-[1-(1-Ethyl-azetidin-3-yl)-1H-pyrazol-4-yl]-6-(6-methyl-[1,2,4]triazolo[4,3-b]pyridazin-3-ylmethyl)-quinoline]
< 100 |  | 100 to 1000 | OCc1ccc(-c2ccc3nnc(Cc4ccc5ncccc5c4)n3n2)cc1 [compound 54]
100 to 1000 |  | 100 to 1000 | N#Cc1cccc(-c2ccc3nnc(Cc4ccc5ncsc5c4)n3n2)c1 [compound 98]
100 to 1000 |  | 100 to 1000 | c1cnc2ccc(Cc3nnc4ccc(C5CC5)nn34)cc2c1 [compound 109, 6-(6-Cyclopropyl-[1,2,4]triazolo[4,3-b]pyridazin-3-ylmethyl)-quinoline]
< 100 | < 100 |  | CCN(CC)CCn1cc(-c2cnc3ccc(Cc4nnc5ccc(C)nn45)cc3c2)cn1 [compound 173]
< 100 |  | < 100 | Cc1cc2ncccc2cc1Cc1nnc2ccc(-c3cnn(C)c3)nn12 [compound 84]
< 100 | 100 to 1000 |  | Cc1ccc2nnc(Cc3ccc4ncc(-c5cnn(CC(=O)O)c5)cc4c3)n2n1 [compound 134]
< 100 | < 100 |  | CCN1CC(Cn2cc(-c3cnc4ccc(Cc5nnc6ccc(C)nn56)cc4c3)cn2)C1 [compound 180]
< 100 | 10000 to 50000 |  | Cn1cc(-c2cnc3cc(F)c(Cc4nnc5cccnn45)cc3c2)cn1 [compound 167]
< 100 |  | < 100 | C[C@@H](c1ccc2ncsc2c1)c1nnc2ccc(-c3cccc(C#N)c3)nn12 [compound 103, (S)-3-[3-(1-Benzothiazol-6-yl-ethyl)-[1,2,4]triazolo[4,3-b]pyridazin-6-yl]-benzonitrile]
< 100 | < 100 |  | CCn1cc(-c2cnc3ccc(Cc4nnc5ccc(C)nn45)cc3c2)cn1 [compound 162]
< 100 | 100 to 1000 |  | Cc1ccc2nnc(Cc3ccc4ncc(-c5cnn(C6CN(S(C)(=O)=O)C6)c5)cc4c3)n2n1 [compound 182]

Continued, compound first:

SMILES | IC50 [1] [nM] | EC50 ([2]; Table 2) [nM] | EC50 ([2]; Table 1) [nM]
Fc1ccc(Oc2ccc3nnc(Cc4ccc5ncccc5c4)n3n2)cc1F [compound 7, 6-[6-(3,4-Difluoro-phenoxy)-[1,2,4]triazolo[4,3-b]pyridazin-3-ylmethyl]-quinoline] | 100 to 1000 |  | 100 to 1000
O=C(NCCO)c1ccc(-c2ccc3nnc(Cc4ccc5ncccc5c4)n3n2)cc1F [compound 74] | < 100 |  | 100 to 1000
CC(c1ccc2ncccc2c1)c1nnc2ccc(-c3cccc(F)c3)nn12 (stereo not shown) [compound 20] | < 100 |  | < 100
NS(=O)(=O)c1cccc(-c2ccc3nnc(Cc4ccc5ncccc5c4)n3n2)c1 [compound 25] | < 100 |  | 100 to 1000
c1ccc(Oc2ccc3nnc(Cc4ccc5ncccc5c4)n3n2)cc1 [compound 8] | 100 to 1000 |  | 100 to 1000
CC(=O)Nc1cccc(-c2ccc3nnc(Cc4ccc5ncccc5c4)n3n2)c1 [compound 57] | 100 to 1000 |  | 1000 to 10000
CS(=O)(=O)Nc1cccc(-c2ccc3nnc(Cc4ccc5ncccc5c4)n3n2)c1 [compound 51] | < 100 |  | 100 to 1000
N#CCc1cccc(-c2ccc3nnc(Cc4ccc5ncccc5c4)n3n2)c1 [compound 61] | < 100 |  | 100 to 1000
CN(C)S(=O)(=O)c1cccc(-c2ccc3nnc(Cc4ccc5ncccc5c4)n3n2)c1 [compound 64] | < 100 |  | < 100
Cc1ccc2nnc(Cc3ccc4ncc(-c5cc(F)cc(F)c5)cc4c3)n2n1 [compound 128] | 100 to 1000 | 1000 to 10000 | 
CN(C)C(=O)c1cc(F)cc(-c2ccc3nnc(Cc4ccc5ncccc5c4)n3n2)c1 [compound 71] | 100 to 1000 |  | 100 to 1000
NS(=O)(=O)c1ccc(Oc2ccc3nnc(Cc4ccc5ncccc5c4)n3n2)cc1 [compound 10] | 1000 to 10000 |  | 10000 to 50000
CNC(=O)c1ccc(-c2ccc3nnc(C(C)c4ccc5ncccc5c4)n3n2)cc1F (stereo not shown) [compound 80] | < 100 |  | < 100
CNS(=O)(=O)c1cccc(-c2ccc3nnc(Cc4ccc5ncccc5c4)n3n2)c1 [compound 48] | < 100 |  | < 100
Fc1cc2ncccc2c(F)c1Cc1nnc2ccc(Cl)nn12 [compound 111, 6-(6-Chloro-[1,2,4]triazolo[4,3-b]pyridazin-3-ylmethyl)-5,7-difluoro-quinoline] | 100 to 1000 |  | 100 to 1000
NC(=O)c1ccc(F)c(-c2ccc3nnc(Cc4ccc5ncccc5c4)n3n2)c1 [compound 4] | 100 to 1000 |  | 1000 to 10000
Cc1ccc2nnc(Cc3ccc4ncc(-c5ccc(C(=O)O)cc5)cc4c3)n2n1 [compound 136] | 100 to 1000 | 1000 to 10000 | 
N#Cc1cccc(-c2ccc3nnc(Cc4c(F)cc5ncccc5c4F)n3n2)c1 [compound 88] | < 100 |  | < 100
CCNC(=O)c1ccc(-c2ccc3nnc(Cc4ccc5ncccc5c4)n3n2)cc1F [compound 75] | < 100 |  | < 100
NC(=O)c1ccc(-c2ccc3nnc(Cc4ccc5ncccc5c4)n3n2)cc1 [compound 24] | < 100 |  | < 100
Fc1ccccc1-c1ccc2nnc(Cc3ccc4ncccc4c3)n2n1 [compound 53] | 100 to 1000 |  | 100 to 1000
Cc1ccc2nnc(Cc3c(F)cc4ncc(-c5cnn(CCN6CCOCC6)c5)cc4c3F)n2n1 [compound 146] | < 100 | < 100 | 
N#Cc1cccc(-c2ccc3nnc(C(F)c4ccc5ncccc5c4)n3n2)c1 (stereo not shown) [compound 22] | 100 to 1000 |  | 1000 to 10000
CN(C)C(=O)c1ccc(-c2ccc3nnc(Cc4ccc5ncccc5c4)n3n2)cc1 [compound 34] | 100 to 1000 |  | 100 to 1000
CNC(=O)c1cccc(-c2ccc3nnc(Cc4ccc5ncccc5c4)n3n2)c1 [compound 58] | 100 to 1000 |  | 1000 to 10000
Cc1cc2ncccc2cc1Cc1nnc2ccc(-c3cccc(C#N)c3)nn12 [compound 85] | < 100 |  | < 100
